# Assay results from patent US20240158446A1, “CYCLIC COMPOUND HAVING SELECTIVE INHIBITORY ACTION ON KRAS OVER HRAS AND NRAS” (CHUGAI SEIYAKU KABUSHIKI KAISHA, priority 2021, published 2024).
# Like-named read-outs stand apart in the source and are kept apart here.
# How the values were obtained:
# [1] = biological target: GDP-bound HRAS wild-type protein (Homo sapiens, UniProt P01112); test: Binding to HRAS by surface plasmon resonance (SPR), Single Cycle Kinetics; conditions: for HRAS/KRAS (ratio of KD value for HRAS to KD value for KRAS): GDP-bound HRAS wild-type protein vs GDP-bound KRAS wild-type protein
# Sequence of GDP-bound HRAS wild-type protein (P01112 whole entry): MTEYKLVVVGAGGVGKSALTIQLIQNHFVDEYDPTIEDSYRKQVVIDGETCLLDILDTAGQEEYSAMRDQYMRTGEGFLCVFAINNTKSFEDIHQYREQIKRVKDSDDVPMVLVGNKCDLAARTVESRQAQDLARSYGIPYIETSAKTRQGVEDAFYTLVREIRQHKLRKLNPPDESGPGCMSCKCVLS
# [2] = biological target: GDP-bound NRAS wild-type protein (Homo sapiens, UniProt P01111); test: Binding to NRAS by surface plasmon resonance (SPR), Single Cycle Kinetics; conditions: for NRAS/KRAS (ratio of KD value for NRAS to KD value for KRAS): GDP-bound NRAS wild-type protein vs GDP-bound KRAS wild-type protein
# Sequence of GDP-bound NRAS wild-type protein (P01111 whole entry): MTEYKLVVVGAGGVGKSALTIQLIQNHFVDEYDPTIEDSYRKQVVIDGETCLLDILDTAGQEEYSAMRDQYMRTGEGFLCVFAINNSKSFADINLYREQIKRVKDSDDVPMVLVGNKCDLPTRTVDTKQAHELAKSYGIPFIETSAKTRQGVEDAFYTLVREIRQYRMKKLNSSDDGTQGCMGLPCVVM
# [3] = biological target: GDP-bound KRAS wild-type protein (Homo sapiens, UniProt P01116); test: Binding to KRAS by surface plasmon resonance (SPR), Single Cycle Kinetics
# Sequence of GDP-bound KRAS wild-type protein (P01116 whole entry): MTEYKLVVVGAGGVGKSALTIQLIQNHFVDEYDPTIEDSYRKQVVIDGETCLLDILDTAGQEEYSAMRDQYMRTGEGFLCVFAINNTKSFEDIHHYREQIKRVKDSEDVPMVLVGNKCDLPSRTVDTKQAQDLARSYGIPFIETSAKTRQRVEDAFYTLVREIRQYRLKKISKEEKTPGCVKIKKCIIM
# [4] = tested on: human lung cancer strain NCI-H441;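 note: cell proliferation inhibition after four days measured by CellTiter-Glo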
# [5] = SPR, Single Cycle Kinetics, 1:1 binding model, GDP-bound KRAS wild-type protein, read-out: KRAS KD
# [6] = SPR, Single Cycle Kinetics, GDP-bound KRAS wild-type protein, read-out: KRAS KD
smiles,measurement,setting,value
CCC(CC)[C@H]1C(=O)N(C)[C@H](C(=O)N(C)C)CC(=O)N(C)[C@@H](COC)C(=O)N[C@@H]([C@@H](C)CC)C(=O)N(C2CC2)CC(=O)N(C)[C@H]2C/C=C\CCN(C2=O)[C@@H](CC2CCC(F)(F)CC2)C(=O)N(C)CC(=O)N[C@@H](CCc2cc(F)c(C(F)(F)F)c(F)c2)C(=O)N2C[C@H](OC3CCCC3)C[C@H]2C(=O)NC2(CC(C)(C)C2)C(=O)N1C [PP2627],HRAS/KRAS (ratio of KD value with respect to GDP-bound HRAS wild-type protein to KD value with respect to KRAS),"[1]; SPR KD ratio HRAS/KRAS, class symbols",A (a compound having 10 or more and less than 20 is denoted as A)
same,NRAS/KRAS (ratio of KD value with respect to GDP-bound NRAS wild-type protein to KD value with respect to KRAS),"[2]; SPR KD ratio NRAS/KRAS, class symbols",A (a compound having 10 or more and less than 20 is denoted as A)
same,Kd,"[3]; SPR Single Cycle Kinetics, GDP-bound KRAS wild-type protein, 1:1 binding model, read-out: KRAS KD",2.6 nM
same,IC50,[4],95.2 nM
"CCO[C@@H]1C[C@H]2C(=O)NC3(CCC3)C(=O)N(C)[C@@H](C3CCCC3)C(=O)N(C)[C@H](C(=O)N3CCCC3)CC(=O)N(C)[C@@H](CC)C(=O)N[C@@H]([C@@H](C)CC)C(=O)N(C)CC(=O)N(C)[C@H]3C/C=C\CCN(C3=O)[C@@H](CC3CCCCC3)C(=O)N(C)CC(=O)N[C@@H](CCc3cc(F)c(C(F)(F)F)c(F)c3)C(=O)N2C1 [PP1443, (2S,8S,12R,14S,20S,23S,27S,30S,36S,38Z)-2-(cyclohexylmethyl)-20-cyclopentyl-8-[2-[3,5-difluoro-4-(trifluoromethyl)phenyl]ethyl]-12-ethoxy-27-ethyl-4,19,22,26,32,35-hexamethyl-30-[(1S)-1-methylpropyl]-23-(pyrrolidine-1-carbonyl)spiro[1,4,7,10,16,19,22,26,29,32,35-undecazatricyclo[34.5.1.0^10,14]dotetracont-38-ene-17,1′-cyclobutane]-3,6,9,15,18,21,25,28,31,34,42-undecone]",HRAS/KRAS (ratio of KD value for HRAS to KD value for KRAS),"[1]; SPR, KD ratio class",A (a compound having 10 or more and less than 20 is denoted as A)
same,NRAS/KRAS (ratio of KD value for NRAS to KD value for KRAS),"[2]; SPR, KD ratio class",AA (a compound having 20 or more is denoted as AA)
same,Kd,[3]; [5],0.15 nM
same,IC50,[4],34.8 nM
CC[C@H](C)[C@@H]1NC(=O)[C@H](CC)N(C)C(=O)C[C@@H](C(=O)N2CCOCC2)N(C)C(=O)[C@H](C2CCCC2)N(C)C(=O)C2(CCCC2)NC(=O)[C@@H]2CCCN2C(=O)[C@H](CCc2cc(F)c(C(F)(F)F)c(F)c2)NC(=O)CN(C)C(=O)[C@H](Cc2ccc(C(F)(F)F)cc2)N2C[C@H](C)CC[C@@H](C2=O)N(C)C(=O)CN(C)C1=O [PP1383],HRAS/KRAS (ratio of KD value for HRAS to KD value for KRAS),"[1]; SPR, KD ratio class",B (a compound having 3 or more and less than 10 is denoted as B)
same,NRAS/KRAS (ratio of KD value for NRAS to KD value for KRAS),"[2]; SPR, KD ratio class",B (a compound having 3 or more and less than 10 is denoted as B)
same,Kd,[3]; [5],0.17 nM
same,IC50,[4],11.2 nM
"CC[C@H](C)[C@@H]1NC(=O)[C@H](CC)N(C)C(=O)C[C@@H](C(=O)N(C)C)N(C)C(=O)[C@H](C2CCCC2)N(C)C(=O)C2(CCC2)NC(=O)[C@@H]2C[C@@H](C(F)(F)F)CN2C(=O)[C@H](CCc2cc(F)c(C(F)(F)F)c(F)c2)NC(=O)CN(C)C(=O)[C@H](Cc2ccc(C(F)(F)F)cc2)N2CC/C=C\C[C@@H](C2=O)N(C)C(=O)CN(C)C1=O [PP1133, (2S,8S,12R,14S,20S,23S,27S,30S,36S,38Z)-20-cyclopentyl-8-[2-[3,5-difluoro-4-(trifluoromethyl)phenyl]ethyl]-27-ethyl-N,N,4,19,22,26,32,35-octamethyl-30-[(1S)-1-methylpropyl]-3,6,9,15,18,21,25,28,31,34,42-undecaoxo-12-(trifluoromethyl)-2-[[4-(trifluoromethyl)phenyl]methyl]spiro[1,4,7,10,16,19,22,26,29,32,35-undecazatricyclo[34.5.1.0^10,14]dotetracont-38-ene-17,1′-cyclobutane]-23-carboxamide]",HRAS/KRAS (ratio of KD value for HRAS to KD value for KRAS),[1]; SPR,A (a compound having 10 or more and less than 20 is denoted as A)
same,NRAS/KRAS (ratio of KD value for NRAS to KD value for KRAS),[2]; SPR,A (a compound having 10 or more and less than 20 is denoted as A)
same,Kd,[3]; [6],0.05 nM
same,IC50,[4],16.5 nM
"CCC[C@H]1C(=O)N[C@@H]([C@@H](C)CC)C(=O)N(C)CC(=O)N(C)[C@H]2C/C=C\CCN(C2=O)[C@@H](Cc2ccc(C(F)(F)F)cc2)C(=O)N(C)CC(=O)N[C@@H](CCc2cc(F)c(C(F)(F)F)c(F)c2)C(=O)N2C[C@H](OCC)C[C@H]2C(=O)N(C)C2(CCC2)C(=O)N(C)[C@@H](C2CCCC2)C(=O)N(C)[C@H](C(=O)N2CCCCC2)CC(=O)N1C [PP3118, (2S,8S,12R,14S,20S,23S,27S,30S,36S,38Z)-20-cyclopentyl-8-[2-[3,5-difluoro-4-(trifluoromethyl)phenyl]ethyl]-12-ethoxy-4,16,19,22,26,32,35-heptamethyl-30-[(1S)-1-methylpropyl]-23-(piperidine-1-carbonyl)-27-propyl-2-[[4-(trifluoromethyl)phenyl]methyl]spiro[1,4,7,10,16,19,22,26,29,32,35-undecazatricyclo[34.5.1.0^10,14]dotetracont-38-ene-17,1′-cyclobutane]-3,6,9,15,18,21,25,28,31,34,42-undecone]",HRAS/KRAS (ratio of KD value for HRAS to KD value for KRAS),[1]; SPR,B (a compound having 3 or more and less than 10 is denoted as B)
same,ratio of the KD value with respect to GDP-bound HRAS wild-type protein to the KD value with respect to KRAS,"[1]; SPR, KD(HRAS)/KD(KRAS)",B (a compound having 3 or more and less than 10 is denoted as B)
same,NRAS/KRAS (ratio of KD value for NRAS to KD value for KRAS),[2]; SPR,A (a compound having 10 or more and less than 20 is denoted as A)
same,ratio of the KD value with respect to GDP-bound NRAS wild-type protein to the KD value with respect to KRAS,"[2]; SPR, KD(NRAS)/KD(KRAS)",A (a compound having 10 or more and less than 20 is denoted as A)
same,Kd,"[3]; SPR, Single Cycle Kinetics, 1:1 binding model, read-out: KD value with respect to GDP-bound KRAS wild-type protein",0.12 nM
same,Kd,[3]; [6],0.12 nM
same,IC50,"[4]; read-out: NCI-H441 cell proliferation inhibitory activity, 50% proliferation inhibitory concentration (IC50 value), NCI-H441, four days, CellTiter-Glo",6.7 nM
CCO[C@@H]1C[C@H]2C(=O)NC3(CCC3)C(=O)N(C)[C@@H](C3CCCC3)C(=O)N(C)[C@H](C(=O)N3CCOCC3)CC(=O)N(C)[C@@H](CC)C(=O)N[C@@H]([C@@H](C)CC)C(=O)N3CC[C@H]3C(=O)N(C)[C@H]3C[C@@H](C)[C@@H](C)CN(C3=O)[C@@H](Cc3ccc(C(F)(F)F)cc3)C(=O)N(C)CC(=O)N[C@@H](CCc3cc(F)c(C(F)(F)F)c(F)c3)C(=O)N2C1 [PP1351],HRAS/KRAS (ratio of KD value for HRAS to KD value for KRAS),"[1]; SPR, KD ratio class",B (a compound having 3 or more and less than 10 is denoted as B)
same,NRAS/KRAS (ratio of KD value for NRAS to KD value for KRAS),"[2]; SPR, KD ratio class",A (a compound having 10 or more and less than 20 is denoted as A)
same,Kd,[3]; [5],0.13 nM
same,IC50,[4],12.8 nM
CCO[C@@H]1C[C@H]2C(=O)NC3(CCC3)C(=O)N(C)[C@@H](C3CCCC3)C(=O)N(C)[C@H](C(=O)N(C)C)CC(=O)N(C)[C@@H](CC3CC3)C(=O)N[C@@H]([C@@H](C)CC)C(=O)N(C)CC(=O)N(C)[C@H]3C/C=C\CCN(C3=O)[C@@H](Cc3ccc(C)cc3)C(=O)N(C)CC(=O)N[C@@H](CCc3cc(F)c(Cl)c(F)c3)C(=O)N2C1 [PP1484],HRAS/KRAS (ratio of KD value for HRAS to KD value for KRAS),"[1]; SPR, KD ratio class",A (a compound having 10 or more and less than 20 is denoted as A)
same,NRAS/KRAS (ratio of KD value for NRAS to KD value for KRAS),"[2]; SPR, KD ratio class",A (a compound having 10 or more and less than 20 is denoted as A)
same,Kd,[3]; [5],0.45 nM
same,IC50,[4],59.3 nM
CCO[C@@H]1C[C@H]2C(=O)NC3(CCC3)C(=O)N(C)[C@@H](C3CCCC3)C(=O)N(C)[C@H](C)CC(=O)N(C)[C@@H](CC3CC3)C(=O)N[C@@H]([C@@H](C)CC)C(=O)N(C)CC(=O)N(C)[C@H]3C/C=C\CCN(C3=O)[C@@H](Cc3ccc(C)cc3)C(=O)N(C)CC(=O)N[C@@H](CCc3cc(F)c(C(F)(F)F)c(F)c3)C(=O)N2C1 [PP1410],HRAS/KRAS (ratio of KD value for HRAS to KD value for KRAS),"[1]; SPR, KD ratio class",B (a compound having 3 or more and less than 10 is denoted as B)
same,NRAS/KRAS (ratio of KD value for NRAS to KD value for KRAS),"[2]; SPR, KD ratio class",B (a compound having 3 or more and less than 10 is denoted as B)
same,Kd,[3]; [5],0.32 nM
same,IC50,[4],51 nM
"CCO[C@@H]1C[C@H]2C(=O)NC3(CCC3)C(=O)N(C)[C@@H](C3CCCC3)C(=O)N(C)[C@H](C(=O)N(C)C)CC(=O)N(C)[C@@H](CC(C)C)C(=O)N[C@@H]([C@@H](C)CC)C(=O)N(C)CC(=O)N(C)[C@H]3C/C=C\CCN(C3=O)[C@@H](CC3CCC(F)(F)CC3)C(=O)N(C)CC(=O)N[C@@H](CCc3cc(F)c(C(F)(F)F)c(F)c3)C(=O)N2C1 [PP1453, (2S,8S,12R,14S,20S,23S,27S,30S,36S,38Z)-20-cyclopentyl-2-[(4,4-difluorocyclohexyl)methyl]-8-[2-[3,5-difluoro-4-(trifluoromethyl)phenyl]ethyl]-12-ethoxy-27-isobutyl-N,N,4,19,22,26,32,35-octamethyl-30-[(1S)-1-methylpropyl]-3,6,9,15,18,21,25,28,31,34,42-undecaoxo-spiro[1,4,7,10,16,19,22,26,29,32,35-undecazatricyclo[34.5.1.0^10,14]dotetracont-38-ene-17,1′-cyclobutane]-23-carboxamide]",HRAS/KRAS (ratio of KD value for HRAS to KD value for KRAS),"[1]; SPR, KD ratio class",A (a compound having 10 or more and less than 20 is denoted as A)
same,NRAS/KRAS (ratio of KD value for NRAS to KD value for KRAS),"[2]; SPR, KD ratio class",A (a compound having 10 or more and less than 20 is denoted as A)
same,Kd,[3]; [5],0.12 nM
same,IC50,[4],13.6 nM
CCO[C@@H]1C[C@H]2C(=O)NC3(CCC3)C(=O)N(C)[C@@H](C3CCCC3)C(=O)N(C)[C@H](C(=O)N(C)C)CC(=O)N(C)[C@@H](CC3CC3)C(=O)N[C@@H]([C@@H](C)CC)C(=O)N(C)CC(=O)N(C)[C@H]3C/C=C\CCN(C3=O)[C@@H](Cc3ccc(C)cc3)C(=O)N(C)CC(=O)N[C@@H](CCc3ccc(Cl)c(Cl)c3)C(=O)N2C1 [PP1485],HRAS/KRAS (ratio of KD value for HRAS to KD value for KRAS),"[1]; SPR, KD ratio class",A (a compound having 10 or more and less than 20 is denoted as A)
same,NRAS/KRAS (ratio of KD value for NRAS to KD value for KRAS),"[2]; SPR, KD ratio class",A (a compound having 10 or more and less than 20 is denoted as A)
same,Kd,[3]; [5],0.28 nM
same,IC50,[4],30.5 nM
